Values quoted from earlier work, collected in article PMC9516332 (Frontiers in Oncology, 2022).
Where two headings read alike, the source gives them in different places.

Key:
Conditions in all cases: cited from earlier work
[1] = molecular target: panel of 255 wild-type kinases (Homo sapiens, UniProt Q13164)
[2] = molecular target: panel of 255 wild-type kinases (Homo sapiens, UniProt Q9Y5S2)
[3] = molecular target: T1, panel of 255 wild-type kinases (Homo sapiens, UniProt P54753)
T1 sequence (P54753 34-998): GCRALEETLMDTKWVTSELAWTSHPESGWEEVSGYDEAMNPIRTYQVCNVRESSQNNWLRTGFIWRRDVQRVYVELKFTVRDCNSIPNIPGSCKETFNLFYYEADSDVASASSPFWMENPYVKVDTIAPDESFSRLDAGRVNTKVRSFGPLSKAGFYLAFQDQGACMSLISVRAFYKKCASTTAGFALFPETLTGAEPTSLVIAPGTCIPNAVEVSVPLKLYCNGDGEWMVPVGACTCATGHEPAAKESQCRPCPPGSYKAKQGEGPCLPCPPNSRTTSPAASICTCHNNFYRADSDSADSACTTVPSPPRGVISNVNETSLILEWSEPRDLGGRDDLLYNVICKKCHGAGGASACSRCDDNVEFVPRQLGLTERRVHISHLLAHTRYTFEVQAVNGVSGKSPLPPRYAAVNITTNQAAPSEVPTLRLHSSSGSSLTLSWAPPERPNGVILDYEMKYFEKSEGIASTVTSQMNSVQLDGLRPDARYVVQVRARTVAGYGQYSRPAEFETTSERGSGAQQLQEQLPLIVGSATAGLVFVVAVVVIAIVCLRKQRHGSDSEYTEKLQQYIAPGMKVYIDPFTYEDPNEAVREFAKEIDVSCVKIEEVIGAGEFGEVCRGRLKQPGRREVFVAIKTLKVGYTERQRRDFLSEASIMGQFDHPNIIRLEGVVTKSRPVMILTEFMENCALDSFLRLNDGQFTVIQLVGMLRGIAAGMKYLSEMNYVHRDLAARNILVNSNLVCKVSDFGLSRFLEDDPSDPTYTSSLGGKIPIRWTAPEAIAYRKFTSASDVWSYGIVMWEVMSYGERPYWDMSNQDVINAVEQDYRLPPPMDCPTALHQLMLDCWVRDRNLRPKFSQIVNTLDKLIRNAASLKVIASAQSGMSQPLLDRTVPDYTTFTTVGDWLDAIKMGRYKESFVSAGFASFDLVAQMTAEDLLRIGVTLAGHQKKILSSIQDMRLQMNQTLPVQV

[4] = molecular target: T2, panel of 255 wild-type kinases (Homo sapiens, UniProt O15146)
T2 sequence (O15146 24-869): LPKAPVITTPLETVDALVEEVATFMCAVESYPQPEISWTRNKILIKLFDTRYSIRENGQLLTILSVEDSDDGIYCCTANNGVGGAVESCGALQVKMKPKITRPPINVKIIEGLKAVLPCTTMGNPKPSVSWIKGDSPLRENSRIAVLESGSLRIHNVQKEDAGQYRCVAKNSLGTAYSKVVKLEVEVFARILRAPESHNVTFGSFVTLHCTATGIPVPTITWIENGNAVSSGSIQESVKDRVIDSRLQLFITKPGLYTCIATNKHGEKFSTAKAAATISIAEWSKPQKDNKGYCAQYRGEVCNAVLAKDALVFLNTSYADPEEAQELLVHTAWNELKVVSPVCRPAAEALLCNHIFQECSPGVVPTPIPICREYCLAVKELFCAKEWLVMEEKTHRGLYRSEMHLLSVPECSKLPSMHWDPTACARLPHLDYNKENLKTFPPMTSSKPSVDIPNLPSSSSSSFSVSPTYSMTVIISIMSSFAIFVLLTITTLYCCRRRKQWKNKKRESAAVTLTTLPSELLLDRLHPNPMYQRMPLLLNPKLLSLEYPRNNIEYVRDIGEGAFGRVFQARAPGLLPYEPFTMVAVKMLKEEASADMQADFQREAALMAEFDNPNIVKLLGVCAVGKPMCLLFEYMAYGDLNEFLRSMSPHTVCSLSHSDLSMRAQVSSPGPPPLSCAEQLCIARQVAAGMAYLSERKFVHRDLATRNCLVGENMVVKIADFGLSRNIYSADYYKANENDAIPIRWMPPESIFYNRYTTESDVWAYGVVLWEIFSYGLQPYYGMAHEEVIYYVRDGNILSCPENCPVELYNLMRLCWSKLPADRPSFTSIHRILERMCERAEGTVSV

[5] = molecular target: T3, panel of 255 wild-type kinases (Homo sapiens, UniProt Q9UHD2)
T3 sequence (Q9UHD2 1-729): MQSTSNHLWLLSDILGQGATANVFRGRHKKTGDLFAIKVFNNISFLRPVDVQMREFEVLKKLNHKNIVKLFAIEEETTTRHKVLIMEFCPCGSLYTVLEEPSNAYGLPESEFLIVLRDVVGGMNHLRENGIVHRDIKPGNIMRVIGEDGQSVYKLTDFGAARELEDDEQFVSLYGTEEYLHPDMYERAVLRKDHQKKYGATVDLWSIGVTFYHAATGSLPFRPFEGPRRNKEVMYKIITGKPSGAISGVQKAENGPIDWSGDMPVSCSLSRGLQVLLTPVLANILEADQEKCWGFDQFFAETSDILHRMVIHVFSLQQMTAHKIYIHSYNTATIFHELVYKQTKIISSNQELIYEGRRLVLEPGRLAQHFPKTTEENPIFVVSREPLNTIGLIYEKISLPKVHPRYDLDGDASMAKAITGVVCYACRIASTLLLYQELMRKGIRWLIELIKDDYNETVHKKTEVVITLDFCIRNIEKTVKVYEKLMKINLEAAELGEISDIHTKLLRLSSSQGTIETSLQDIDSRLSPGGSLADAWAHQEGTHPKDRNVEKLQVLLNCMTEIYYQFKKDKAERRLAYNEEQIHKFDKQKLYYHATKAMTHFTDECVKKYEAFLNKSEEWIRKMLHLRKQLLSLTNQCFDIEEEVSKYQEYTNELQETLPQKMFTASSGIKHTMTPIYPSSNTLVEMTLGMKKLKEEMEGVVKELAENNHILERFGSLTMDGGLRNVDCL

[6] = kinase Erk5, 1 µmol/L single concentration, ref DOI: 10.1158/1535-7163.MCT-18-0877
[7] = MRCKβ, 1 µmol/L single concentration, ref DOI: 10.1158/1535-7163.MCT-18-0877
[8] = kinase EPHB3, 1 µmol/L single concentration, ref DOI: 10.1158/1535-7163.MCT-18-0877
[9] = MUSK, 1 µmol/L single concentration, ref DOI: 10.1158/1535-7163.MCT-18-0877
[10] = kinase TBK1, 1 µmol/L single concentration, ref DOI: 10.1158/1535-7163.MCT-18-0877
[11] = kinase Erk5, 1 µmol/L single concentration, ref DOI: 10.1371/journal.pone.0092146
[12] = MRCKβ, 1 µmol/L single concentration, ref DOI: 10.1371/journal.pone.0092146
[13] = kinase EPHB3, 1 µmol/L single concentration, ref DOI: 10.1371/journal.pone.0092146
[14] = MUSK, 1 µmol/L single concentration, ref DOI: 10.1371/journal.pone.0092146
[15] = kinase TBK1, 1 µmol/L single concentration, ref DOI: 10.1371/journal.pone.0092146

SMILES	%-inhibition at 1 µmol/L, Erk5 [1, 6] [%]	%-inhibition, MRCKβ [2, 7] [%]	%-inhibition at 1 µmol/L, EPHB3 [3, 8] [%]	%-inhibition, MUSK [4, 9] [%]	%-inhibition at 1 µmol/L, TBK1 [5, 10] [%]	%-inhibition at 1 µmol/L, Erk5 [1, 11] [%]	%-inhibition, MRCKβ [2, 12] [%]	%-inhibition at 1 µmol/L, EPHB3 [3, 13] [%]	%-inhibition, MUSK [4, 14] [%]	%-inhibition at 1 µmol/L, TBK1 [5, 15] [%]	further results
CC#CC(=O)N1CCC[C@H]1c1nc(-c2ccc(C(=O)Nc3ccccn3)cc2)c2c(N)nccn12 [acalabrutinib]	-2.12	-16	1.64	-0.581	2.14	–	–	–	–	–	–
CCc1cc2c(cc1N1CCC(N3CCOCC3)CC1)C(C)(C)c1[nH]c3cc(C#N)ccc3c1C2=O [alectinib]	-1.24	-5	2	6	6	–	–	–	–	–	–
COc1cc(N2CCC(N3CCN(C)CC3)CC2)ccc1Nc1ncc(Cl)c(Nc2ccccc2P(C)(C)=O)n1 [brigatinib]	–	–	–	–	–	–	–	–	–	–	%-inhibition at 1 µmol/L, Erk5 [1]: 96%; %-inhibition, MRCKβ [2]: 38%; %-inhibition at 1 µmol/L, EPHB3 [3]: 0.727%; %-inhibition, MUSK [4]: 82%; %-inhibition at 1 µmol/L, TBK1 [5]: 23%
Cc1cc(Nc2ncc(Cl)c(Nc3ccccc3S(=O)(=O)C(C)C)n2)c(OC(C)C)cc1C1CCNCC1 [ceritinib]	94	-0.678	-1	45	4	–	–	–	–	–	–
O=C(c1ccc(F)c(F)c1Nc1ccc(I)cc1F)N1CC(O)([C@@H]2CCCCN2)C1 [cobimetinib]	1.71	0.0776	0.898	2.78	4	–	–	–	–	–	–
C[C@@H](Oc1cc(-c2cnn(C3CCNCC3)c2)cnc1N)c1c(Cl)ccc(F)c1Cl [crizotinib]	–	–	–	–	–	45	-2	5	99	1.42	–
CC(C)(C)c1nc(-c2cccc(NS(=O)(=O)c3c(F)cccc3F)c2F)c(-c2ccnc(N)n2)s1 [dabrafenib]	–	–	–	–	–	0.144	-2.85	3	16	-1.15	–
C=CC(=O)N1CCC[C@@H](n2nc(-c3ccc(Oc4ccccc4)cc3)c3c(N)ncnc32)C1 [ibrutinib]	4	-7.55	3	1.76	0.825	–	–	–	–	–	–
CO[C@@H]1[C@H](N(C)C(=O)c2ccccc2)C[C@H]2O[C@]1(C)n1c3ccccc3c3c4c(c5c6ccccc6n2c5c31)C(=O)NC4 [midostaurin]	-1.27	18	1.53	94	98	–	–	–	–	–	–
C=CC(=O)Nc1cc(Nc2nccc(-c3cn(C)c4ccccc34)n2)c(OC)cc1N(C)CCN(C)C [osimertinib]	10	12	-0.0464	8	9	–	–	–	–	–	–
CC(=O)Nc1cccc(-n2c(=O)n(C3CC3)c(=O)c3c(Nc4ccc(I)cc4F)n(C)c(=O)c(C)c32)c1 [trametinib]	–	–	–	–	–	-2.55	-2.56	-5.47	-0.929	-4.47	–
CCCS(=O)(=O)Nc1ccc(F)c(C(=O)c2c[nH]c3ncc(-c4ccc(Cl)cc4)cc23)c1F [vemurafenib]	–	–	–	–	–	0.709	-5	2	-0.285	-0.81	–
